# ChEMBL document CHEMBL1126095, “Incorporation of a novel conformationally restricted tyrosine analog into a cyclic, delta opioid receptor selective tetrapeptide (JOM-13) enhances delta receptor binding affinity and selectivity” (J Med Chem, 1992)
# Positions of bridges follow the written chain, without caps; N, C: chain ends. Non-standard residues stand in square brackets, D forms with d. Residues, ends and D or L forms follow the SMILES beside them. Pen = CC(C)(S)[C@H](N)C(=O)O
# Tests used:
# [1] = target: Mu-type opioid receptor (Cavia porcellus, UniProt P97266); experiment: Binding affinity against opioid receptor mu in guinea pig brain homogenates, using [3H]DAMGO as radioligand.; assay type: tissue-based
# Chain of Mu-type opioid receptor (P97266 whole entry): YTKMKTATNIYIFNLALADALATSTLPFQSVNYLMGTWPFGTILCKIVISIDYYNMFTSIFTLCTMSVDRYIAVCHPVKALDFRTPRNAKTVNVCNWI
# [2] = target: Kappa-type opioid receptor (Cavia porcellus, UniProt P41144); experiment: Binding affinity against opioid receptor kappa from guinea pig brain homogenates, using [3H]U-69593 as radioligand.; assay type: tissue-based
# Chain of Kappa-type opioid receptor (P41144 whole entry): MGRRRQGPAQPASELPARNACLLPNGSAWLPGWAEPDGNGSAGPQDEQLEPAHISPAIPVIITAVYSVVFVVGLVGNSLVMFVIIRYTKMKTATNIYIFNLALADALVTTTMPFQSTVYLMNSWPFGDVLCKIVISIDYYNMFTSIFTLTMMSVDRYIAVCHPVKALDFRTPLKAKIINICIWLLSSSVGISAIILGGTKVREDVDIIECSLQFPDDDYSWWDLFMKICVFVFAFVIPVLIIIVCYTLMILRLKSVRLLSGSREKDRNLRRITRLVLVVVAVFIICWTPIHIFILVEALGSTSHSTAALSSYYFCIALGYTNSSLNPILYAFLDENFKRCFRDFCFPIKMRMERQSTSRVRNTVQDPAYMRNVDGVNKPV
# [3] = Binding affinity against Opioid receptor delta 1 in guinea pig brain homogenates, using [3H]DPDPE as radioligand.
SMILES,Ki [1] [µM],Ki [2] [µM],Ki [3] [µM]
CC1(C)SSC[C@@H](NC(=O)[C@@H]2NCC[C@@H]2c2ccc(O)cc2)C(=O)N[C@@H](Cc2ccccc2)C(=O)N[C@@H]1C(=O)O,10,> 10,–
CC1(C)SSC[C@H](NC(=O)[C@@H](N)Cc2ccc(O)cc2)C(=O)N[C@@H](Cc2ccccc2)C(=O)N[C@@H]1C(=O)O (H-YCF[Pen]-OH; disulfide 2-4),–,–,0.00179
CC1(C)SSC[C@@H](NC(=O)[C@H]2NCC[C@@H]2c2ccc(O)cc2)C(=O)N[C@@H](Cc2ccccc2)C(=O)N[C@@H]1C(=O)O,0.105,10,–
